Data from ChEMBL document CHEMBL1139533, “Structure-activity relationship studies of a series of antiviral and antibacterial aglycon derivatives of the glycopeptide antibiotics vancomycin, eremomycin, and dechloroeremomycin” (J Med Chem, 2005).
≈ marks a conversion by molar mass, not a printed value.

Key:
Enterococcus faecium [1] = assay: Minimum inhibitory concentration against glycopeptide resistant enterococci 569 Enterococcus faecium; format: functional
[2] = system: Moloney murine sarcoma virus; assay: Effective concentration against Moloney sarcoma virus; format: functional, organism-based, Viruses
C3H/3T3 = assay: Minimal cytotoxic concentration to cause an alteration in C3H/3T3 cell line morphology; format: functional; details: Mus musculus
[3] = system: Staphylococcus epidermidis; assay: Minimum inhibitory concentration against 533 Staphylococcus epidermidis; format: functional
Staphylococcus aureus [4] = assay: Minimum inhibitory concentration against glycopeptide intermediate-resistant 3798 Staphylococcus aureus; format: functional
Enterococcus faecalis [5] = assay: Minimum inhibitory concentration against glycopeptide resistant enterococci 560 Enterococcus faecalis; format: functional
[6] = system: Human immunodeficiency virus 1; assay: Effective concentration against human immunodeficiency virus type 1; format: functional, organism-based
[7] = system: Human immunodeficiency virus 2; assay: Effective concentration against human immunodeficiency virus type 2; format: functional, organism-based
CCRF-CEM = assay: Cytostatic activity to the compound against CEM cell line; format: functional, cell-based; details: Homo sapiens
[8] = system: Staphylococcus haemolyticus; assay: Minimum inhibitory concentration against 602 Staphylococcus haemolyticus; format: functional
Enterococcus faecalis [9] = assay: Minimum inhibitory concentration against 559 glycopeptide susceptible enterococci Enterococcus faecalis; format: functional
Staphylococcus aureus [10] = assay: Minimum inhibitory concentration against glycopeptide intermediate-resistant 3797 Staphylococcus aureus; format: functional
Enterococcus faecium [11] = assay: Minimum inhibitory concentration against glycopeptide susceptible enterococci 568 Enterococcus faecium; format: functional
MOLT-4 = assay: Cytostatic activity to the compound against Molt4/C8 cell line; format: functional, cell-based; details: Homo sapiens
L1210 = assay: Cytostatic activity against L1210 cell line; format: functional, cell-based; details: Mus musculus

SMILES	MIC (Enterococcus faecium [1])	EC50 [2]	MCC (C3H/3T3)	MIC [3]	MIC (Staphylococcus aureus [4])	MIC (Enterococcus faecalis [5])	EC50 [6]	EC50 [7]	IC50 (CCRF-CEM)	MIC [8]	MIC (Enterococcus faecalis [9])	MIC (Staphylococcus aureus [10])	MIC (Enterococcus faecium [11])	IC50 (MOLT-4)	IC50 (L1210)
NC(=O)C[C@@H]1NC(=O)[C@H](N)[C@H](O)c2ccc(c(Cl)c2)Oc2cc3cc(c2O)Oc2ccc(cc2)[C@@H](O)[C@@H]2NC(=O)[C@H](NC(=O)[C@@H]3NC1=O)c1ccc(O)c(c1)-c1c(O)cc(O)cc1[C@@H](C(=O)O)NC2=O	> 128 µg/mL	> 100 µM	≥ 100 µg/mL	> 128 µg/mL	> 128 µg/mL	> 128 µg/mL	115 µM	> 250 µM	> 250 µM	> 128 µg/mL	> 128 µg/mL	> 128 µg/mL	> 128 µg/mL	> 250 µM	> 250 µM
NCCCCCCCCCCNC(=O)[C@H]1NC(=O)[C@H]2NC(=O)[C@H](NC(=O)[C@@H]3NC(=O)[C@H](CC(N)=O)NC(=O)[C@H](N)[C@H](O)c4ccc(c(Cl)c4)Oc4cc3cc(c4O)Oc3ccc(cc3Cl)[C@H]2O)c2ccc(O)c(c2)-c2c(O)cc(O)cc21	> 64 µg/mL	9.3 µM	100 µg/mL	> 32 µg/mL	> 32 µg/mL	> 64 µg/mL	≥ 25 µM	≥ 25 µM	139 µM	> 32 µg/mL	> 64 µg/mL	> 32 µg/mL	> 64 µg/mL	≥ 250 µM	> 250 µM
CN[C@H](CC(C)C)C(=O)N[C@H]1C(=O)N[C@@H](CC(N)=O)C(=O)N[C@H]2C(=O)N[C@H]3C(=O)N[C@H](C(=O)N[C@H](C(=O)O)c4cc(O)cc(O)c4-c4cc3ccc4O)[C@H](O)c3ccc(cc3)Oc3cc2cc(c3O)Oc2ccc(cc2)[C@H]1O	> 64 µg/mL	≥ 100 µM	≥ 100 µg/mL	32 µg/mL (≈ 29.8 µM)	> 32 µg/mL	> 64 µg/mL	> 125 µM	> 125 µM	> 250 µM	> 32 µg/mL	32 µg/mL (≈ 29.8 µM)	> 32 µg/mL	32 µg/mL (≈ 29.8 µM)	> 250 µM	> 250 µM
NC(=O)C[C@@H]1NC(=O)[C@H](N)[C@H](O)c2ccc(c(Cl)c2)Oc2cc3cc(c2O)Oc2ccc(cc2Cl)[C@@H](O)[C@@H]2NC(=O)[C@H](NC(=O)[C@@H]3NC1=O)c1ccc(O)c(c1)-c1c(O)cc(O)cc1[C@@H](C(=O)O)NC2=O	> 128 µg/mL	88 µM	> 100 µg/mL	> 128 µg/mL	> 128 µg/mL	> 128 µg/mL	≥ 125 µM	≥ 125 µM	≥ 250 µM	> 128 µg/mL	> 128 µg/mL	> 128 µg/mL	> 128 µg/mL	> 250 µM	> 250 µM
NC(=O)C[C@@H]1NC(=O)[C@H](N)[C@H](O)c2ccc(c(Cl)c2)Oc2cc3cc(c2O)Oc2ccc(cc2Cl)[C@@H](O)[C@@H]2NC(=O)[C@H](NC(=O)[C@@H]3NC1=O)c1ccc(O)c(c1)-c1c(O)cc(O)cc1[C@@H](C(=O)NCC13CC4CC(CC(C4)C1)C3)NC2=O	> 64 µg/mL	27 µM	≥ 100 µg/mL	> 32 µg/mL	> 32 µg/mL	> 64 µg/mL	20 µM	30 µM	≥ 250 µM	> 32 µg/mL	> 64 µg/mL	> 32 µg/mL	> 64 µg/mL	178 µM	≥ 250 µM
CN[C@H](CC(C)C)C(=O)N[C@H]1C(=O)N[C@@H](CC(N)=O)C(=O)N[C@H]2C(=O)N[C@H]3C(=O)N[C@H](C(=O)N[C@H](C(=O)NCC45CC6CC(CC(C6)C4)C5)c4cc(O)cc(O)c4-c4cc3ccc4O)[C@H](O)c3ccc(cc3)Oc3cc2cc(c3O)Oc2ccc(cc2)[C@H]1O	16 µg/mL (≈ 13.1 µM)	11 µM	100 µg/mL	8 µg/mL (≈ 6.54 µM)	16 µg/mL (≈ 13.1 µM)	16 µg/mL (≈ 13.1 µM)	8.5 µM	12 µM	165 µM	16 µg/mL (≈ 13.1 µM)	8 µg/mL (≈ 6.54 µM)	8 µg/mL (≈ 6.54 µM)	4 µg/mL (≈ 3.27 µM)	44 µM	58 µM
NC(=O)C[C@@H]1NC(=O)[C@H](N)[C@H](O)c2ccc(c(Cl)c2)Oc2cc3cc(c2O)Oc2ccc(cc2)[C@@H](O)[C@@H]2NC(=O)[C@H](NC(=O)[C@@H]3NC1=O)c1ccc(O)c(c1)-c1c(O)cc(O)cc1[C@@H](C(=O)NC1C3CC4CC(C3)CC1C4)NC2=O (stereo not given in full)	> 64 µg/mL	22 µM	≥ 100 µg/mL	> 32 µg/mL	> 32 µg/mL	> 64 µg/mL	50 µM	50 µM	> 250 µM	> 32 µg/mL	> 64 µg/mL	> 32 µg/mL	> 64 µg/mL	> 250 µM	> 250 µM
CN[C@H](CC(C)C)C(=O)N[C@H]1C(=O)N[C@@H](CC(N)=O)C(=O)N[C@H]2C(=O)N[C@H]3C(=O)N[C@H](C(=O)N[C@H](C(=O)NC4C5CC6CC(C5)CC4C6)c4cc(O)cc(O)c4-c4cc3ccc4O)[C@H](O)c3ccc(cc3)Oc3cc2cc(c3O)Oc2ccc(cc2)[C@H]1O (stereo not given in full)	32 µg/mL (≈ 26.5 µM)	14 µM	100 µg/mL	16 µg/mL (≈ 13.2 µM)	16 µg/mL (≈ 13.2 µM)	32 µg/mL (≈ 26.5 µM)	8.5 µM	21.7 µM	185 µM	16 µg/mL (≈ 13.2 µM)	16 µg/mL (≈ 13.2 µM)	16 µg/mL (≈ 13.2 µM)	8 µg/mL (≈ 6.62 µM)	185 µM	129 µM
CN[C@H](CC(C)C)C(=O)N[C@H]1C(=O)N[C@@H](CC(N)=O)C(=O)N[C@H]2C(=O)N[C@H]3C(=O)N[C@H](C(=O)N[C@H](C(=O)NCCCCCCCCCCN)c4cc(O)cc(O)c4-c4cc3ccc4O)[C@H](O)c3ccc(cc3)Oc3cc2cc(c3O)Oc2ccc(cc2)[C@H]1O	64 µg/mL (≈ 52.1 µM)	14 µM	100 µg/mL	16 µg/mL (≈ 13 µM)	16 µg/mL (≈ 13 µM)	32 µg/mL (≈ 26 µM)	15 µM	> 25 µM	109 µM	16 µg/mL (≈ 13 µM)	16 µg/mL (≈ 13 µM)	16 µg/mL (≈ 13 µM)	8 µg/mL (≈ 6.51 µM)	106 µM	146 µM
